In brackets after ≈: the same amount, converted by molar mass. Read-outs that look alike come from different tables or passages of the source.
Key:
Assay in all cases: In-vitro antimicrobial activity primary screen (agar dilution MIC)
Format in all cases: cell-based
[1] = tested on: Staphylococcus aureus A5177; settings: Staphylococcus aureus A5177, BHI agar, 20-24 h
Experimental: (§1) The antimicrobial spectra of several of the compounds of the present invention were tested as described below.
(§2) Twelve petri dishes containing successive aqueous dilutions of the test compounds, mixed with 10 mL of sterilized Brain Heart Infusion (BHI) agar (Difco 0418-01-5), were prepared. Each plate was inoculated with 1:100 (or 1:10 for slow growing strains (primarily Micrococcus and Streptococcus) dilutions of up to 32 different microorganisms, using a Steers replicator block. The inoculated plates were incubated at 35 37° C. for 20-24 hours. In addition, a control plate, using BHI agar containing no test compound, was prepared and incubated at the beginning and the end of each test.
(§3) An additional plate containing a compound having known susceptibility patterns for the organisms being tested and belonging to the same antibiotic class as the test compounds was also prepared and incubated as a further control, as well as to provide test-to test comparability.
(§4) After incubation, each plate was read. The MIC (minimum inhibitory concentration) is defined as the lowest concentration of test compound yielding no growth, a slight haze, or sparsely isolated colonies on the inoculum spot as compared to the growth control containing no test compound.

[2] = tested on: Pseudomonas aeruginosa K799/WT
Experimental: as §1, §2, §3, §4

[3] = tested on: Micrococcus luteus ATCC 9341; settings: 20-24 h
Experimental: as §1, §2, §3, §4

[4] = tested on: Staphylococcus aureus ATCC 6538P; settings: BHI agar, 20-24 h
Experimental: as §1, §2, §3, §4

Escherichia coli DC-2 = settings: Escherichia coli DC-2, BHI agar, 20-24 h
Experimental: as §1, §2, §3, §4

[5] = tested on: Micrococcus luteus ATCC 4698; settings: BHI agar, 20-24 h
Experimental: as §1, §2, §3, §4

[6] = tested on: Providencia stuartii CMX 640
Experimental: as §1, §2, §3, §4

[7] = tested on: Staphylococcus aureus 45 RAR2; settings: BHI agar, 20-24 h
Experimental: as §1, §2, §3, §4

[8] = tested on: Pseudomonas aeruginosa K799/61; settings: Pseudomonas aeruginosa K799/61, BHI agar, 20-24 h
Experimental: as §1, §2, §3, §4

[9] = tested on: Pseudomonas aeruginosa A5007
Experimental: as §1, §2, §3, §4

[10] = tested on: Streptococcus bovis A5169; settings: BHI agar, 20-24 h
Experimental: as §1, §2, §3, §4

Escherichia coli JUHL = settings: Escherichia coli JUHL, BHI agar, 20-24 h
Experimental: as §1, §2, §3, §4

[11] = tested on: Pseudomonas aeruginosa BMH10; settings: BHI agar, 20-24 h
Experimental: as §1, §2, §3, §4

[12] = tested on: Klebsiella pneumoniae ATCC 8045
Experimental: as §1, §2, §3, §4

[13] = tested on: Enterobacter aerogenes ATCC 13048
Experimental: as §1, §2, §3, §4

Staphylococcus aureus 45 = settings: BHI agar, 20-24 h
Experimental: as §1, §2, §3, §4

[14] = tested on: Streptococcus pyrogenes 2548 INDUC; settings: BHI agar, 20-24 h
Experimental: as §1, §2, §3, §4

Acinetobacter SP CMX 669 = settings: Acinetobacter SP CMX 669, BHI agar, 20-24 h
Experimental: as §1, §2, §3, §4

Escherichia coli H560 = settings: Escherichia coli H560, BHI agar, 20-24 h
Experimental: as §1, §2, §3, §4

Escherichia coli SS = settings: BHI agar, 20-24 h
Experimental: as §1, §2, §3, §4

[15] = tested on: Streptococcus pyrogenes EES61; settings: BHI agar, 20-24 h
Experimental: as §1, §2, §3, §4

[16] = tested on: Streptococcus agalactiae CMX 508; settings: BHI agar, 20-24 h
Experimental: as §1, §2, §3, §4

[17] = tested on: Staphylococcus epidermidis 3519; settings: BHI agar, 20-24 h
Experimental: as §1, §2, §3, §4

Pseudomonas cepacia 2961 = settings: BHI agar, 20-24 h
Experimental: as §1, §2, §3, §4

[18] = tested on: Enterococcus faecium ATCC 8043
Experimental: as §1, §2, §3, §4

[19] = tested on: Staphylococcus aureus CMX 553; settings: BHI agar, 20-24 h
Experimental: as §1, §2
as §3, with “comparability. Erythromycin A was used for this purpose.” for “comparability.”
as §4

[20] = tested on: Staphylococcus aureus CMX 503A; settings: BHI agar, 20-24 h
Experimental: as §1, §2
as §3, with “comparability. Erythromycin A was used for this purpose.” for “comparability.”
as §4

[21] = tested on: Staphylococcus aureus CMX 686B; settings: BHI agar, 20-24 h
Experimental: as §1, §2
as §3, with “comparability. Erythromycin A was used for this purpose.” for “comparability.”
as §4

[22] = ATCC9341, BHI agar, read-out: MIC
[23] = Staphylococcus aureus, ATCC6538P, 24 h
[24] = Micrococcus luteus, ATCC4698, 24 h
[25] = Staphylococcus aureus, 45RAR2, 24 h
[26] = Streptococcus agalactiae, CMX508, 24 h
[27] = Staphylococcus epidermidis, 3519, 24 h
[28] = Enterococcus faecium, ATCC8043, 24 h
[29] = Staphylococcus aureus, CMX553, 24 h, read-out: MIC
[30] = Staphylococcus aureus, CMX503A, 24 h, read-out: MIC

## CC[C@H]1OC(=O)[C@H](C)[C@@H](O[C@H]2C[C@@](C)(OC)[C@@H](O)[C@H](C)O2)[C@H](C)[C@@H](O[C@@H]2O[C@H](C)C[C@H](N(C)C)[C@H]2O)[C@](C)(O)C[C@@H](C)[C@@H]2O[C@@]1(C)C(=NO)[C@H]2C [Example 18, (9S)-9-Deoxo-11,12-dideoxy-9,12-epoxy-11-hydroxyiminoerythromycin A]
[1]
  MIC: 0.78 microgram/mL
[2]; Pseudomonas aeruginosa K799/WT, BHI agar, 20-24 h
  MIC: > 100 microgram/mL
[3]; BHI agar
  MIC: 0.1 microgram/mL
[4]
  MIC: 0.2 microgram/mL
Escherichia coli DC-2
  MIC: > 100 microgram/mL
[5]
  MIC: 0.1 microgram/mL
[6]; Providencia stuartii CMX 640, BHI agar, 20-24 h
  MIC: > 100 microgram/mL
[7]
  MIC: 0.39 microgram/mL
[8]
  MIC: 6.2 microgram/mL
[9]; Pseudomonas aeruginosa A5007, BHI agar, 20-24 h
  MIC: > 100 microgram/mL
[10]
  MIC: 0.1 microgram/mL
Escherichia coli JUHL
  MIC: > 100 microgram/mL
[11]
  MIC: > 100 microgram/mL
[12]; Klebsiella pneumoniae ATCC 8045, BHI agar, 20-24 h
  MIC: > 100 microgram/mL
[13]; Enterobacter aerogenes ATCC 13048, BHI agar, 20-24 h
  MIC: > 100 microgram/mL
Staphylococcus aureus 45
  MIC: 0.2 microgram/mL
[14]
  MIC: 1.56 microgram/mL
Acinetobacter SP CMX 669
  MIC: > 100 microgram/mL
Escherichia coli H560
  MIC: > 100 microgram/mL
Escherichia coli SS
  MIC: 1.56 microgram/mL
[15]
  MIC: 0.02 microgram/mL
[16]
  MIC: 0.05 microgram/mL
[17]
  MIC: 0.39 microgram/mL
Pseudomonas cepacia 2961
  MIC: > 100 microgram/mL
[18]; Enterococcus faecium ATCC 8043, BHI agar, 20-24 h
  MIC: 0.2 microgram/mL
[19]
  MIC: 0.2 microgram/mL
[20]
  MIC: 0.2 microgram/mL
[21]
  MIC: 0.2 microgram/mL

## CC[C@H]1OC(=O)[C@H](C)[C@@H](O[C@H]2C[C@@](C)(OC)[C@@H](N)[C@H](C)O2)[C@H](C)[C@@H](O[C@@H]2O[C@H](C)C[C@H](N(C)C)[C@H]2O)[C@](C)(O)C[C@@H](C)[C@@H]2O[C@@]1(C)C(=O)[C@H]2C [Example 14, (4"S,9S)-4"-Amino-9-deoxo-4",11,12-trideoxy-9,12-epoxy-11-oxoerythromycin A]
[1]; Staphylococcus aureus, A5177, 24 h
  MIC: 3.1 µg/mL (≈ 4.34 µM)
[2]; Pseudomonas aeruginosa, K799/WT, 24 h
  MIC: > 100 µg/mL
[3]; [22]
  MIC: 0.05 µg/mL (≈ 0.0699 µM)
[4]; [23]
  MIC: 0.39 µg/mL (≈ 0.546 µM)
Escherichia coli DC-2; Escherichia coli, DC2, 24 h
  MIC: 25 µg/mL (≈ 35 µM)
[5]; [24]
  MIC: 0.1 µg/mL (≈ 0.14 µM)
[6]; Providencia stuartii, CMX640, 24 h
  MIC: > 100 µg/mL
[7]; [25]
  MIC: 0.39 µg/mL (≈ 0.546 µM)
[8]; Pseudomonas aeruginosa, K799/61, 24 h
  MIC: 1.56 µg/mL (≈ 2.18 µM)
[9]; Pseudomonas aeruginosa, A5007, 24 h
  MIC: > 100 µg/mL
[10]; Streptococcus equinus, read-out: MIC
  MIC: 0.1 µg/mL (≈ 0.14 µM)
Escherichia coli JUHL; Escherichia coli, 24 h
  MIC: 25 µg/mL (≈ 35 µM)
[11]; Pseudomonas aeruginosa, BMH10, 24 h
  MIC: 50 µg/mL (≈ 69.9 µM)
[12]; Klebsiella pneumoniae, ATCC8045, 24 h
  MIC: 100 µg/mL (≈ 140 µM)
[13]; Klebsiella aerogenes, ATCC13048, 24 h
  MIC: > 100 µg/mL
Staphylococcus aureus 45; read-out: MIC
  MIC: 0.39 µg/mL (≈ 0.546 µM)
[14]; Streptococcus, 2548INDUC, 24 h
  MIC: 3.1 µg/mL (≈ 4.34 µM)
Acinetobacter SP CMX 669; Acinetobacter, SPCMX669, 24 h
  MIC: 12.5 µg/mL (≈ 17.5 µM)
Escherichia coli H560; Escherichia coli, H560, 24 h
  MIC: 12.5 µg/mL (≈ 17.5 µM)
Escherichia coli SS; Escherichia coli, 24 h
  MIC: 0.2 µg/mL (≈ 0.28 µM)
[15]; Streptococcus, EES61, 24 h
  MIC: 0.05 µg/mL (≈ 0.0699 µM)
[16]; [26]
  MIC: 0.05 µg/mL (≈ 0.0699 µM)
[17]; [27]
  MIC: 0.39 µg/mL (≈ 0.546 µM)
Pseudomonas cepacia 2961; Burkholderia cepacia, 2961, 24 h
  MIC: > 100 µg/mL
[18]; [28]
  MIC: 0.1 µg/mL (≈ 0.14 µM)
[19]; [29]
  MIC: 0.2 µg/mL (≈ 0.28 µM)
[20]; [30]
  MIC: 0.39 µg/mL (≈ 0.546 µM)
[21]; CMX686B, read-out: MIC
  MIC: 0.39 µg/mL (≈ 0.546 µM)

## CC[C@H]1OC(=O)[C@H](C)[C@@H](O[C@H]2C[C@@](C)(OC)[C@H](NC(C)=O)[C@H](C)O2)[C@H](C)[C@@H](O[C@@H]2O[C@H](C)C[C@H](N(C)C)[C@H]2O)[C@](C)(O)C[C@@H](C)[C@@H]2O[C@@]1(C)C(=O)[C@H]2C [Example 10, (4"R,9S) 4"-Acetylamino-9-deoxo-4",11,12-trideoxy-9,12-epoxy-11-oxoerythromycin A]
[1]; read-out: MIC
  MIC: 0.39 µg/mL (≈ 0.515 µM)
[2]; Pseudomonas aeruginosa K799/WT, BHI agar, 20-24 h, read-out: MIC
  MIC: > 100 µg/mL
[3]; [22]
  MIC: 0.05 µg/mL (≈ 0.0661 µM)
[4]; [23]
  MIC: 0.39 µg/mL (≈ 0.515 µM)
Escherichia coli DC-2; DC2, read-out: MIC
  MIC: > 100 µg/mL
[5]; [24]
  MIC: 0.2 µg/mL (≈ 0.264 µM)
[6]; CMX640, Providencia stuartii CMX 640, BHI agar, 20-24 h, read-out: MIC
  MIC: > 100 µg/mL
[7]; [25]
  MIC: 0.39 µg/mL (≈ 0.515 µM)
[8]; read-out: MIC
  MIC: 1.56 µg/mL (≈ 2.06 µM)
[9]; Pseudomonas aeruginosa A5007, BHI agar, 20-24 h, read-out: MIC
  MIC: > 100 µg/mL
[10]; Streptococcus equinus, A5169, 24 h
  MIC: 0.2 µg/mL (≈ 0.264 µM)
Escherichia coli JUHL; read-out: MIC
  MIC: > 100 µg/mL
[11]; read-out: MIC
  MIC: > 100 µg/mL
[12]; ATCC8045, Klebsiella pneumoniae ATCC 8045, BHI agar, 20-24 h, read-out: MIC
  MIC: > 100 µg/mL
[13]; Klebsiella aerogenes, ATCC13048, Enterobacter aerogenes ATCC 13048, BHI agar, 20-24 h, read-out: MIC
  MIC: > 100 µg/mL
Staphylococcus aureus 45; read-out: MIC
  MIC: 0.39 µg/mL (≈ 0.515 µM)
[14]; read-out: MIC
  MIC: 0.78 µg/mL (≈ 1.03 µM)
Acinetobacter SP CMX 669; SPCMX669, read-out: MIC
  MIC: 50 µg/mL (≈ 66.1 µM)
Escherichia coli H560; read-out: MIC
  MIC: 100 µg/mL (≈ 132 µM)
Escherichia coli SS; read-out: MIC
  MIC: 0.39 µg/mL (≈ 0.515 µM)
[15]; read-out: MIC
  MIC: 0.02 µg/mL (≈ 0.0264 µM)
[16]; [26]
  MIC: 0.1 µg/mL (≈ 0.132 µM)
[17]; [27]
  MIC: 0.39 µg/mL (≈ 0.515 µM)
Pseudomonas cepacia 2961; Burkholderia cepacia, read-out: MIC
  MIC: > 100 µg/mL
[18]; [28]
  MIC: 0.2 µg/mL (≈ 0.264 µM)
[19]; [29]
  MIC: 0.39 µg/mL (≈ 0.515 µM)
[20]; [30]
  MIC: 0.39 µg/mL (≈ 0.515 µM)
[21]; CMX686B, read-out: MIC
  MIC: 0.39 µg/mL (≈ 0.515 µM)
